Biological target: T1, TRIM56 E3 ubiquitin-protein ligase TRIM56 (Homo sapiens, UniProt Q9BRZ2)
T1 construct: Cells were resuspended in cold PBS on ice and sonicated with a probe sonicator to achieve lysis; endogenous in cells
T1 sequence (Q9BRZ2 1-755): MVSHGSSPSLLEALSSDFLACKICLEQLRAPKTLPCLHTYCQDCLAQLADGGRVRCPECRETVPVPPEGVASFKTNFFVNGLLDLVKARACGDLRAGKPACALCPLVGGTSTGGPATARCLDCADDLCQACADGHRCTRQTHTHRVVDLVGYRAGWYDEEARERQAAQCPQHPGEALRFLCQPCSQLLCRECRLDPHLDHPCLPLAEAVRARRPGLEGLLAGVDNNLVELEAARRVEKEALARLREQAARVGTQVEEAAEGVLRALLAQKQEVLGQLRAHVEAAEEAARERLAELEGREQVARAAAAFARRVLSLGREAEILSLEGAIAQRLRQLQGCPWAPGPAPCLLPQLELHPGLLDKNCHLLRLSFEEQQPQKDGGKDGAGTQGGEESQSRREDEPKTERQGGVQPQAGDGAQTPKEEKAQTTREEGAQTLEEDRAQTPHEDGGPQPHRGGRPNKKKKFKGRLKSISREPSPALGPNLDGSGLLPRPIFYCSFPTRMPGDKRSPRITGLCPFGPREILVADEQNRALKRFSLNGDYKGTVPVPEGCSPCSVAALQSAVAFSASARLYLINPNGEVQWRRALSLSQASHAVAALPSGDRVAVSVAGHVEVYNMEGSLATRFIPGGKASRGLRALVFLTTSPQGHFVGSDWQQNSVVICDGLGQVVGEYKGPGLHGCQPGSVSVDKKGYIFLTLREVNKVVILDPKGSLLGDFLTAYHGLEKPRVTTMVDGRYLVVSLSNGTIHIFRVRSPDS
Test: Cysteine liganding, probe competition
Type: binding
In short: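 Probe competition in native proteome: 5 mg/ml lysate, compound 1 hr 25° C, then desthiobiotin iodoacetamide (10 mM stock) 1 hr 25° C; acetone ppt, urea/DTT reduction, iodoacetamide alkylation, trypsin, streptavidin pull-down.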

SMILES | KB03_500 uM_percent_inhibition (500 uM, UniProt Q9BRZ2) | Liganded (TRIM56 Res# 36, uniprot Q9BRZ2) | 500 Max (uniprot Q9BRZ2) | 500 ave (uniprot Q9BRZ2) | Liganded (TRIM56 Res# 338, uniprot Q9BRZ2)
O=C(CCl)Nc1cc(C(F)(F)F)cc(C(F)(F)F)c1 [KBO3] | 93% | YES | 78.3 | 78.3 | 
COc1ccc2c(c1)CCCN2C(=O)CCl [KB02] |  |  |  |  | YES
